Where two headings read alike, the source gives them in different places.
Experiments:
Assay in all cases: Test A preemergence
Format in all cases: in vivo
[1] = test system: pigweed (Amaranthus retroflexus); conditions: Amaranthus retroflexus, pre-emergence, 240 h; for pest or weed control at 125 g/ha: 125 g ai/ha; for pest or weed control at 500 g/ha: 500 g ai/ha
[2] = test system: barnyardgrass (Echinochloa crus-galli); conditions: Echinochloa crus-galli, pre-emergence, 240 h; for pest or weed control at 125 g/ha: 125 g ai/ha; for pest or weed control at 500 g/ha: 500 g ai/ha
In short: (§1)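 In a loam soil and sand blend, planted seeds got a preemergence directed soil spray, and young plants at the one- to two-leaf stage, 2–10 cm high, got a postemergence application; ~10 d greenhouse hold; injury rated visually, 0 = none, 100 = complete control.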

[3] = test system: giant foxtail (Setaria faberii); conditions: Setaria faberi, pre-emergence, 240 h; for pest or weed control at 125 g/ha: 125 g ai/ha; for pest or weed control at 500 g/ha: 500 g ai/ha
In short: as §1

[4] = test system: ryegrass, Italian (Italian ryegrass, Lolium multiflorum); conditions: Lolium multiflorum, pre-emergence, 240 h; for pest or weed control at 125 g/ha: 125 g ai/ha; for pest or weed control at 500 g/ha: 500 g ai/ha
In short: as §1

[5] = test system: ragweed (common ragweed, Ambrosia elatior); conditions: Ambrosia artemisiifolia, pre-emergence, 240 h; for pest or weed control at 125 g/ha: 125 g ai/ha; for pest or weed control at 500 g/ha: 500 g ai/ha
In short: as §1

[6] = preemergence, 0 to 100 scale where 0 is no effect and 100 is complete control, read-out: Pigweed plant response rating
[7] = preemergence, 0 to 100 scale where 0 is no effect and 100 is complete control, read-out: Barnyardgrass plant response rating
[8] = preemergence, 0 to 100 scale where 0 is no effect and 100 is complete control, read-out: Foxtail, Giant plant response rating
[9] = preemergence, 0 to 100 scale where 0 is no effect and 100 is complete control, read-out: Ryegrass, Italian plant response rating
[10] = preemergence, 0 to 100 scale where 0 is no effect and 100 is complete control, read-out: Ragweed plant response rating
[11] = preemergence, visual injury rating, 0 to 100 scale where 0 is no effect and 100 is complete control, approximately 10 d, read-out: Pigweed plant response rating
[12] = preemergence, visual injury rating, 0 to 100 scale where 0 is no effect and 100 is complete control, approximately 10 d, read-out: Barnyardgrass plant response rating
[13] = preemergence, visual injury rating, 0 to 100 scale where 0 is no effect and 100 is complete control, approximately 10 d, read-out: Foxtail, Giant plant response rating
[14] = preemergence, visual injury rating, 0 to 100 scale where 0 is no effect and 100 is complete control, approximately 10 d, read-out: Ryegrass, Italian plant response rating
[15] = preemergence, visual injury rating, 0 to 100 scale where 0 is no effect and 100 is complete control, approximately 10 d, read-out: Ragweed plant response rating
[16] = preemergence, visual rating after approx. 10 d, 0 to 100 scale where 0 is no effect and 100 is complete control, read-out: Plant response rating, Pigweed
[17] = preemergence, 0 to 100 scale, 0 = no effect, 100 = complete control, read-out: Plant response rating, Pigweed
[18] = preemergence, visual rating after approx. 10 d, 0 to 100 scale where 0 is no effect and 100 is complete control, read-out: Plant response rating, Barnyardgrass
[19] = preemergence, 0 to 100 scale, 0 = no effect, 100 = complete control, read-out: Plant response rating, Barnyardgrass
[20] = preemergence, visual rating after approx. 10 d, 0 to 100 scale where 0 is no effect and 100 is complete control, read-out: Plant response rating, Foxtail, Giant
[21] = preemergence, 0 to 100 scale, 0 = no effect, 100 = complete control, read-out: Plant response rating, Foxtail, Giant
[22] = preemergence, visual rating after approx. 10 d, 0 to 100 scale where 0 is no effect and 100 is complete control, read-out: Plant response rating, Ryegrass, Italian
[23] = preemergence, 0 to 100 scale, 0 = no effect, 100 = complete control, read-out: Plant response rating, Ryegrass, Italian
[24] = preemergence, visual rating after approx. 10 d, 0 to 100 scale where 0 is no effect and 100 is complete control, read-out: Plant response rating, Ragweed
[25] = preemergence, 0 to 100 scale, 0 = no effect, 100 = complete control, read-out: Plant response rating, Ragweed

Compound | pest or weed control at 125 g/ha [1, 11] [%] | pest or weed control at 500 g/ha [1, 6] [%] | pest or weed control at 125 g/ha [2, 12] [%] | pest or weed control at 500 g/ha [2, 7] [%] | pest or weed control at 125 g/ha [3, 13] [%] | pest or weed control at 500 g/ha [3, 8] [%] | pest or weed control at 125 g/ha [4, 14] [%] | pest or weed control at 500 g/ha [4, 9] [%] | pest or weed control at 125 g/ha [5, 15] [%] | pest or weed control at 500 g/ha [5, 10] [%] | other results
CS(=O)(=O)c1ccccc1NC(=O)[C@H]1C(=O)N(C2CC2)CC[C@@H]1c1cccc(C(F)(F)F)c1 [Compound 927] | – | – | – | – | – | – | – | – | – | – | pest or weed control at 125 g/ha [1, 6]: 0%; pest or weed control at 500 g/ha ([1]; preemergence, visual injury rating about 10 d after treatment, 0 to 100 scale (0 no effect, 100 complete control), read-out: Pigweed plant response rating): 0%; pest or weed control at 125 g/ha [2, 7]: 0%; pest or weed control at 500 g/ha ([2]; preemergence, visual injury rating about 10 d after treatment, 0 to 100 scale (0 no effect, 100 complete control), read-out: Barnyardgrass plant response rating): 70%; pest or weed control at 125 g/ha [3, 8]: 0%; pest or weed control at 500 g/ha ([3]; preemergence, visual injury rating about 10 d after treatment, 0 to 100 scale (0 no effect, 100 complete control), read-out: Foxtail, Giant plant response rating): 70%; pest or weed control at 125 g/ha [4, 9]: 0%; pest or weed control at 500 g/ha ([4]; preemergence, visual injury rating about 10 d after treatment, 0 to 100 scale (0 no effect, 100 complete control), read-out: Ryegrass, Italian plant response rating): 0%; pest or weed control at 125 g/ha [5, 10]: 0%; pest or weed control at 500 g/ha ([5]; preemergence, visual injury rating about 10 d after treatment, 0 to 100 scale (0 no effect, 100 complete control), read-out: Ragweed plant response rating): 0%
CN1C[C@H](c2ccc(C#N)cc2)[C@@H](C(=O)Nc2ccc(F)c(F)c2F)C1=O [Compound 1229] | 60 | 90 | 90 | 100 | 100 | 100 | 0 | 40 | 60 | 70 | –
O=C1NC[C@H](c2cscn2)[C@H]1C(=O)Nc1ccccc1F [Compound 752] | – | – | – | – | – | – | – | – | – | – | pest or weed control at 125 g/ha [1, 16]: 20%; pest or weed control at 500 g/ha [1, 17]: 40%; pest or weed control at 125 g/ha [2, 18]: 30%; pest or weed control at 500 g/ha [2, 19]: 90%; pest or weed control at 125 g/ha [3, 20]: 90%; pest or weed control at 500 g/ha [3, 21]: 90%; pest or weed control at 125 g/ha [4, 22]: 20%; pest or weed control at 500 g/ha [4, 23]: 30%; pest or weed control at 125 g/ha [5, 24]: 40%; pest or weed control at 500 g/ha [5, 25]: 60%
CSc1ccccc1NC(=O)[C@H]1C(=O)N(C)C[C@@H]1c1ccc(C#N)cc1 [Compound 1230] | 20 | 30 | 0 | 50 | 40 | 90 | 0 | 0 | 0 | 0 | –
CN1CC[C@H](c2ccc(C(F)(F)F)cc2)[C@@H](C(=O)Nc2ccc(F)c(F)c2F)C1=O [Compound 1226] | 80 | 90 | 90 | 100 | 100 | 100 | 80 | 80 | 0 | 30 | –
O=C1NC[C@H](c2ccc3c(c2)OCO3)[C@H]1C(=O)Nc1cccc(F)c1F [Compound 731] | – | – | – | – | – | – | – | – | – | – | pest or weed control at 125 g/ha [1, 16]: 0%; pest or weed control at 500 g/ha [1, 17]: 0%; pest or weed control at 125 g/ha [2, 18]: 80%; pest or weed control at 500 g/ha [2, 19]: 90%; pest or weed control at 125 g/ha [3, 20]: 40%; pest or weed control at 500 g/ha [3, 21]: 90%; pest or weed control at 125 g/ha [4, 22]: 20%; pest or weed control at 500 g/ha [4, 23]: 40%; pest or weed control at 125 g/ha [5, 24]: 0%; pest or weed control at 500 g/ha [5, 25]: 70%
N#Cc1cc([C@H]2CNC(=O)[C@@H]2C(=O)Nc2ccccc2F)ccc1F [Compound 1199] | 0 | 60 | 90 | 100 | 90 | 100 | 0 | 0 | 30 | 90 | –
O=C1NC[C@H](c2cncs2)[C@H]1C(=O)Nc1ccccc1F [Compound 1335] | – | – | – | – | – | – | – | – | – | – | pest or weed control at 500 g/ha ([1]; preemergence, 0 to 100 scale (0 no effect, 100 complete control), read-out: Plant response rating, Pigweed): 0%; pest or weed control at 125 g/ha ([1]; Preemergence, 0 to 100 scale (0 no effect, 100 complete control), read-out: Plant response rating, Pigweed): 0%; pest or weed control at 500 g/ha ([2]; preemergence, 0 to 100 scale (0 no effect, 100 complete control), read-out: Plant response rating, Barnyardgrass): 0%; pest or weed control at 125 g/ha ([2]; Preemergence, 0 to 100 scale (0 no effect, 100 complete control), read-out: Plant response rating, Barnyardgrass): 0%; pest or weed control at 500 g/ha ([3]; preemergence, 0 to 100 scale (0 no effect, 100 complete control), read-out: Plant response rating, Foxtail, Giant): 0%; pest or weed control at 125 g/ha ([3]; Preemergence, 0 to 100 scale (0 no effect, 100 complete control), read-out: Plant response rating, Foxtail, Giant): 0%; pest or weed control at 500 g/ha ([4]; preemergence, 0 to 100 scale (0 no effect, 100 complete control), read-out: Plant response rating, Ryegrass, Italian): 0%; pest or weed control at 125 g/ha ([4]; Preemergence, 0 to 100 scale (0 no effect, 100 complete control), read-out: Plant response rating, Ryegrass, Italian): 0%; pest or weed control at 500 g/ha ([5]; preemergence, 0 to 100 scale (0 no effect, 100 complete control), read-out: Plant response rating, Ragweed): 0%; pest or weed control at 125 g/ha ([5]; Preemergence, 0 to 100 scale (0 no effect, 100 complete control), read-out: Plant response rating, Ragweed): 0%
